# What was measured:
# rabbit = conditions: Prenatal developmental toxicity study, new zealand white, Oral, Gavage/Intubation, dose end: 19 GD
# rat [1] = conditions: Chronic toxicity, sprague dawley, Oral, Feed, dose end: 104 week, group: systemic
# rat [2] = conditions: Subchronic oral toxicity in rodents, sprague dawley, Feed, dose end: 90 day, group: systemic, systemic / organ weight / liver / absolute + systemic / organ weight / liver / relative to body weight + systemic / pathology microscopic / …
# rat [3] = conditions: Combined chronic toxicity/carcinogenicity, sprague dawley, Oral, Feed, dose end: 104 week, group: systemic
# mouse [4] = conditions: Carcinogenicity, cd1, Oral, Feed, dose end: 104 week, group: systemic
# rat [5] = conditions: Prenatal developmental toxicity study, sprague dawley, Oral, Gavage/Intubation, dose end: 15 GD
# rat [6] = conditions: Multigenerational reproductive toxicity study, sprague dawley, Oral, Feed, dose end: 2 generation
# dog [7] = conditions: Chronic toxicity, beagle, Oral, Capsule, dose end: 52 week, group: systemic
# dog [8] = conditions: Subchronic oral toxicity in nonrodent, beagle, Capsule, dose end: 90 day, group: systemic, systemic / clinical chemistry / alkaline phosphatase (alp/alk) / alkaline phosphatase (alp/alk) + systemic / organ weight / liver / relative…
# mouse [9] = conditions: Carcinogenicity; cd1; Oral; Feed; dose end: 104 week; group: systemic; systemic / organ weight / liver / relative to body weight + systemic / pathology gross / liver / discolored + systemic / pathology …
# rat [10] = conditions: Prenatal developmental toxicity study, sprague dawley, Oral, Gavage/Intubation, dose end: 15 GD; remark: listed apart in the source
# [11] = group: developmental, developmental / developmental malformation / bone / absent + developmental / developmental malformation / bone / fused + developmental / …
# [12] = group: maternal, systemic / in life observation / food consumption / food consumption + systemic / pathology microscopic / liver / apoptosis + systemic / …
# [13] = systemic / pathology microscopic / testes / atrophy
# [14] = systemic / pathology microscopic / testes / atrophy + systemic / organ weight / epididymis / relative to body weight + systemic / organ …
# [15] = systemic / pathology microscopic / liver / dilatation + systemic / pathology microscopic / liver / inflammation + systemic / pathology …
# [16] = systemic / pathology microscopic / liver / pigmentation + systemic / pathology microscopic / liver / vacuolization
# [17] = systemic / pathology microscopic / liver / pigmentation + systemic / pathology microscopic / liver / vacuolization + systemic / pathology …
# [18] = group: developmental, developmental / developmental malformation / bone / incomplete ossification
# [19] = group: maternal, systemic / in life observation / body weight / body weight + systemic / in life observation / clinical signs / ataxia + systemic / in life …
# [20] = group: offspring, systemic / in life observation / body weight / offspring (pup) weight gain + developmental / developmental landmark / eye opening / eye …
# [21] = group: parental, systemic / pathology microscopic / liver / fatty change
# [22] = group: parental, systemic / pathology microscopic / liver / fatty change + systemic / in life observation / body weight / body weight + systemic / in life …
# [23] = group: reproductive, reproductive / offspring survival early / litter size / litter size
# [24] = systemic / clinical chemistry / glucose / glucose
# [25] = group: developmental, developmental / developmental malformation / bone / delayed ossification + developmental / developmental malformation / bone / incomplete …
# [26] = group: maternal, systemic / in life observation / body weight / body weight gain + systemic / in life observation / clinical signs / urogenital staining + …
compound,measurement,setting,value
O=[N+]([O-])c1cc(C(F)(F)F)c(Cl)c([N+](=O)[O-])c1Nc1ncc(C(F)(F)F)cc1Cl [Fluazinam],LEL,rabbit; [11],12 mg/kg/day
same,LOAEL,rabbit; [11],12 mg/kg/day
same,NEL,rabbit; [11],7 mg/kg/day
same,NOAEL,rabbit; [11],7 mg/kg/day
same,LEL,"rabbit; group: maternal, reproductive / reproductive performance / aborted / aborted",4 mg/kg/day
same,LOAEL,rabbit; [12],7 mg/kg/day
same,NEL,rabbit; [12],2 mg/kg/day
same,NOAEL,rabbit; [12],4 mg/kg/day
same,LOAEL,rat [1]; [13],3.9 mg/kg/day
same,LEL,rat [1]; [14],3.9 mg/kg/day
same,NEL,rat [1]; [14],1.9 mg/kg/day
same,NOAEL,rat [1]; [14],1.9 mg/kg/day
same,LEL,rat [2],38 mg/kg/day
same,LOAEL,rat [2],38 mg/kg/day
same,NEL,rat [2],3.8 mg/kg/day
same,NOAEL,rat [2],3.8 mg/kg/day
same,LOAEL,rat [3]; [15],3.8 mg/kg/day
same,NOAEL,rat [3]; [15],0.38 mg/kg/day
same,LEL,rat [3]; [13],0.04 mg/kg/day
same,NEL,rat [3]; [13],< 0.04 mg/kg/day
same,LEL,mouse [4]; [16],10.7 mg/kg/day
same,LOAEL,mouse [4]; [16],10.7 mg/kg/day
same,NEL,mouse [4]; [17],1.12 mg/kg/day
same,NOAEL,mouse [4]; [17],1.12 mg/kg/day
same,LEL,rat [5]; [18],100 mg/kg/day
same,LOAEL,rat [5]; [18],> 1000 mg/kg/day
same,NEL,rat [5]; [18],10 mg/kg/day
same,NOAEL,rat [5]; [18],≥ 1000 mg/kg/day
same,LEL,rat [5]; [19],1000 mg/kg/day
same,LOAEL,rat [5]; [19],> 1000 mg/kg/day
same,NEL,rat [5]; [19],100 mg/kg/day
same,NOAEL,rat [5]; [19],≥ 1000 mg/kg/day
same,LOAEL,"rat [6]; group: offspring, systemic / in life observation / body weight / offspring (pup) weight gain",47.3 mg/kg/day
same,LEL,rat [6]; [20],47.3 mg/kg/day
same,NEL,rat [6]; [20],9.7 mg/kg/day
same,NOAEL,rat [6]; [20],9.7 mg/kg/day
same,LEL,rat [6]; [21],9.7 mg/kg/day
same,LOAEL,rat [6]; [21],9.7 mg/kg/day
same,NEL,rat [6]; [22],1.9 mg/kg/day
same,NOAEL,rat [6]; [22],1.9 mg/kg/day
same,LEL,rat [6]; [23],47.3 mg/kg/day
same,LOAEL,rat [6]; [23],47.3 mg/kg/day
same,NEL,rat [6]; [23],9.7 mg/kg/day
same,NOAEL,rat [6]; [23],9.7 mg/kg/day
same,LEL,dog [7]; [24],1 mg/kg/day
same,NEL,dog [7]; [24],< 1 mg/kg/day
same,LOAEL,dog [7]; systemic / in life observation / clinical signs / nasal dryness + systemic / pathology microscopic / stomach / hyperplasia,10 mg/kg/day
same,NOAEL,dog [7]; systemic / in life observation / clinical signs / nasal dryness + systemic / pathology microscopic / stomach / hyperplasia + systemic / …,1 mg/kg/day
same,LEL,dog [8],100 mg/kg/day
same,LOAEL,dog [8],100 mg/kg/day
same,NEL,dog [8],10 mg/kg/day
same,NOAEL,dog [8],10 mg/kg/day
same,LEL,mouse [9],126 mg/kg/day
same,LOAEL,mouse [9],126 mg/kg/day
same,NEL,mouse [9],< 126 mg/kg/day
same,NOAEL,mouse [9],< 126 mg/kg/day
same,LOAEL,rat [10]; [25],250 mg/kg/day
same,NEL,rat [10]; [25],10 mg/kg/day
same,NOAEL,rat [10]; [25],50 mg/kg/day
same,LEL,"rat [10]; group: developmental, developmental / developmental malformation / bone / full supernumerary",50 mg/kg/day
same,LEL,rat [10]; [26],250 mg/kg/day
same,LOAEL,rat [10]; [26],250 mg/kg/day
same,NEL,rat [10]; [26],50 mg/kg/day
same,NOAEL,rat [10]; [26],50 mg/kg/day
